Source: article PMC12894981, “Structure-guided screening identifies Tucatinib as dual inhibitor for MCT1/2” (EMBO Reports, 2025)
Changes are numbered by the printed parent chain. Where two headings read alike, the source gives them in different places.

Key:
[1] = molecular target: T1, MCT2-embigin (Homo sapiens, UniProt O60669, F262A); test: bio-layer interferometry, SSA biosensor, […] fit; format: binding; conditions: pH 7.4, 25 °C
T1 construct: gene SLC16A7; fusion: embigin C-terminus joined by GGSG linker to MCT2 N-terminus, C-terminal twin-Strep tag; HEK-293F, DDM then GDN, heterodimer; in transport tests expressed as fusion in HEK-293T cells; with Embigin
T1 sequence (O60669 1-478 F262A): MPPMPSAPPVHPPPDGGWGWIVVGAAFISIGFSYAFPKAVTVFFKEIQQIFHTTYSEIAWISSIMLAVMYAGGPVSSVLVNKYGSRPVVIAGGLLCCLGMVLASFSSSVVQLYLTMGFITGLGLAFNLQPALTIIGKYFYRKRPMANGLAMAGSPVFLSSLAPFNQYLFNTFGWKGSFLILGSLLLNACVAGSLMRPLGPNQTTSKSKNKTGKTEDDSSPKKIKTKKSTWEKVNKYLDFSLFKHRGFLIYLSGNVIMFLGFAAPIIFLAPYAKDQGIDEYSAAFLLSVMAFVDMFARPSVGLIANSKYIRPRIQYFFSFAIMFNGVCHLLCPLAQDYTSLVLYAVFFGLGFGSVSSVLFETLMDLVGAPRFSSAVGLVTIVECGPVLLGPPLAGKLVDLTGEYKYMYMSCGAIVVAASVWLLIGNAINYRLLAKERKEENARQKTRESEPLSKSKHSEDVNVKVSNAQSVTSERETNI
T1 sequence (Q6PCB8 33-327 partner): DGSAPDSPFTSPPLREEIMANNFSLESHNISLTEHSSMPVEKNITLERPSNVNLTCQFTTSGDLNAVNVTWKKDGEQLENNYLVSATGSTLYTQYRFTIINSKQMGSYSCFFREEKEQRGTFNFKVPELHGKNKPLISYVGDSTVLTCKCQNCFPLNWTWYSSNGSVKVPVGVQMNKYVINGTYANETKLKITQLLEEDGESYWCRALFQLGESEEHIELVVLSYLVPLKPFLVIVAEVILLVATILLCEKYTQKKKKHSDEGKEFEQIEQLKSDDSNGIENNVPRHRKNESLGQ

[2] = molecular target: T2, MCT2-embigin (Homo sapiens, UniProt O60669, Y34A); test: bio-layer interferometry, SSA biosensor, […] fit; format: binding; conditions: pH 7.4, 25 °C
T2 construct: gene SLC16A7; fusion: embigin C-terminus joined by GGSG linker to MCT2 N-terminus, C-terminal twin-Strep tag; HEK-293F, DDM then GDN, heterodimer; in transport tests expressed as fusion in HEK-293T cells; with Embigin
T2 sequence (O60669 1-478 Y34A): T1 sequence (O60669 1-478 F262A) with Y34A, A262F
T2 sequence (Q6PCB8 33-327 partner): T1 sequence (Q6PCB8 33-327 partner)

[3] = molecular target: T3, MCT2-embigin (Homo sapiens, UniProt O60669); test: bio-layer interferometry, SSA biosensor, […] fit; format: binding; conditions: read-out: affinity (KD)
T3 construct: gene SLC16A7; fusion: embigin C-terminus joined by GGSG linker to MCT2 N-terminus, C-terminal twin-Strep tag; HEK-293F, DDM then GDN, heterodimer; in transport tests expressed as fusion in HEK-293T cells; with Embigin
T3 sequence (O60669 1-478): T1 sequence (O60669 1-478 F262A) with A262F
T3 sequence (Q6PCB8 33-327 partner): T1 sequence (Q6PCB8 33-327 partner)

[4] = molecular target: T3, MCT2-embigin; test: pyruvate uptake, pyronicSF fluorescence, transfected HEK-293T cells; format: cell-based
[5] = system: T4, MCT1-Basigin-2; test: as above; format: cell-based, Homo sapiens; conditions: 5 mM pyruvate; 30 min pre-incubation
T4 construct: gene SLC16A1; fusion MCT1-Basigin-2; expressed in HEK-293T cells with pyronicSF for transport; with Basigin

[6] = molecular target: T5, MCT2-embigin (Homo sapiens, UniProt O60669, F351A); test: bio-layer interferometry, SSA biosensor, […] fit; format: binding
T5 construct: gene SLC16A7; fusion: embigin C-terminus joined by GGSG linker to MCT2 N-terminus, C-terminal twin-Strep tag; HEK-293F, DDM then GDN, heterodimer; in transport tests expressed as fusion in HEK-293T cells; with Embigin
T5 sequence (O60669 1-478 F351A): T1 sequence (O60669 1-478 F262A) with A262F, F351A
T5 sequence (Q6PCB8 33-327 partner): T1 sequence (Q6PCB8 33-327 partner)

[7] = molecular target: T3, MCT2-embigin; test: bio-layer interferometry, SSA biosensor, […] fit
[8] = molecular target: T2, MCT2-embigin; test: bio-layer interferometry, SSA biosensor, […] fit; format: binding
[9] = molecular target: T1, MCT2-embigin; test: bio-layer interferometry, SSA biosensor, […] fit; format: binding

Cc1n[nH]c(C)c1Cc1sc2c(c1C(=O)N1C[C@H](O)CO1)c(=O)n(C)c(=O)n2CC(C)C [AR-C155858]
KD [1]: MCT2(F262A)-embigin (B)
KD [2]: The binding kinetics of AR-C155858 bound to MCT2(Y34A)-embigin (A)
Kd [3]: 0.6 µM
IC50 [4]: 0.981 µM

Cc1[nH]nc(C(F)(F)F)c1Cc1sc2c(c1C(=O)N1C[C@](C)(O)CO1)c(=O)n(C)c(=O)n2C(C)C [AZD3965]
IC50 [5]: 1.24 µM

Cc1cc(Nc2ncnc3ccc(NC4=NC(C)(C)CO4)cc23)ccc1Oc1ccn2ncnc2c1 [Tucatinib]
Kd [6]: 211 µM
Kd [7]: 0.6 µM
Kd [8]: 13.8 µM
IC50 [4]: 2.71 µM
Kd [9]: 33.2 µM
IC50 [5]: 2.6 µM
